The values below come from patent US7238813B2, “Chemical compounds” (Smithkline Beecham Corporation, priority 2000, dated 2007).

What is called IC50 is the midpoint of a concentration-inhibition curve.

Experiment [1] relates to Human umbilical cord endothelial cells (HUVEC). Put plainly: VEGF-driven cellular proliferation assay: BrdU incorporation assay (VEGF-C). Format: cell-based. The conditions noted are these: for IC50: Homo sapiens. Further details: key to VEGF-C: + = pIC50 of 5.0–6.0; ++ = pIC50 of 6.0–7.0; +++ = pIC50 of > 7.0; − = a negative or inconclusive result. As to the method: VFGF-driven Cellular Proliferation Assay: BrdU Incorporation Assay (VEGF-C)
Human umbilical cord endothelial cells (HUVEC, Clonetics, CC2519) were passaged in Type I collagen-coated 100-mm petridishes in EGM-MV medium (Clonetics, CC3125) at 37° C. in a humidified 5% CO2, 95% air incubator. (HUVEC passaged more than 6 times in vitro were discarded and not subjected to assaying.) The cells were harvested using trypsin/EDTA, counted using a haemocytometer and plated at 5000 cells/well in a Type I-collagen coated 96-well plate (Becton Dickinson, 354407) in M199 medium (Gibco BRL, 12340-030) containing 5% FBS (Hyclone, A 1115-L) and gentamicin (at 50 μg/ml, Gibco BRL). After incubation overnight at 37° C., the media were replaced with 100 μl of M199 serum-free medium containing compounds at various concentrations with 0.6% DMSO and gentamicin. The compounds were diluted in serum-free M199 medium from 10 mM stock solutions prepared in 100% DMSO. After a 30 min incubation at 37° C., the cells were fed with 100 μl of serum-free M199 medium containing gentamicin, 0.2% culture-grade bovine serum albumin (BSA, Sigma A1993) and 20 ng/ml of VEGF (R&D systems, 293-VE) or 0.6 ng/ml of basic FGF (R&D systems, 233-FB), and cultured at 37° C. for another 24 h. The cells were pulsed with bromodeoxyuridine (BrdU at 10 μM in serum-free M199) at 37° C. for an additional 24 h. The incorporation of BrdU into the proliferating HUVEC were analyzed using BrdU Cell Proliferation ELISA (Roche Molecular Biochemicals, 1647229) according to the manufacturer's protocols. The optical density at 450 nm was measured with a multilabel counter (ARVO SX, Wallac). The percent inhibition of cell growth was calculated relative to blank control wells. The concentration of test compound that inhibits 50% of cell growth (IC50) was interpolated using nonlinear regression (Levernberg-Marquardt) and the equation, y=Vmax (1−x/(K+x))+Y2, where “K” was equal to the IC50. The IC50, values were converted to pIC50 values, i.e., −log IC50 in Molar concentration.

Experiment [2] concerns the target T1, TIE2 intracellular domain/c-fms extracellular domain (TIE2/c-fms) chimeric protein expressing mouse 3T3 cells (Homo sapiens, UniProt Q02763).
T1 construct: a TIE2 intracellular domain/c-fms extracellular domain (TIE2/c-fms) chimeric protein; expressed in transfected cells; host or cells: mouse 3T3 cells
Put plainly: TIE-2 autophosphorylation assay (TIE2-C), ELISA. The conditions noted are these: TIE2/c-fms 3T3 cells, MCSF activation. Format: cell-based. As to the method:
TIE-2 Autophosphorylation Assay (TIE2-C)
The TIE-2 autophosphorylation assay used an ELISA method and a TIE2 intracellular domain/c-fms extracellular domain (TIE2/c-fms) chimeric protein expressing mouse 3T3 cells. This assay measured the autophosphorylation level of TIE2 protein expressed in cells. The cells were cultured in high glucose DMEM (Sigma) containing 10% serum at 37° C. in a humidified 10% CO2, 90% air incubator. The test compound (diluted from a 10 mM stock in DMSO, final DMSO concentration was 0.1%) was incubated with TIE2/c-fms expressing cells for 1 hr in serum free DMEM in 96 well plates followed by the activation of TIE2/c-fms receptor using c-fms ligand, MCSF (macrophage colony stimulating factor). The culture media was removed by aspiration and the cells incubated for at least 30 mins on ice with lysis buffer containing 137 mM NaCl, 2 mM EDTA, 10% glycerol, […] sodium ortho vanadate and complete protease inhibitor cocktail (Roche) in 20 mM Tris-HCl (pH8.0). The cell extracts were transferred into Rat anti-c-fms antibody coated 96 well plates and incubated for 12 hrs at 4° C. The extracts were removed by aspiration and the plate was incubated with biotinylated anti-phosphotyrosine antibody, PT66 (Sigma) and then with HRP (Horseradish Peroxidase)-labeled streptavidin (PIERCE). The optical density at 450 nm derived from HRP catalyzed TMB was measured with an ARVO multilabel counter. (Wallac Berthold Japan). The percent inhibition of activity was calculated relative to blank control wells. The concentration of test compound that inhibits 50% of activity (IC50) was interpolated using nonlinear regression (Levernberg-Marquardt) and the equation, y=Vmax (1−x/(K+x))+Y2, where “K” was equal to the IC50. The IC50 values were converted to pIC50 values, i.e., −log IC50 in Molar concentration.

The target of experiment [3] is T2, GST-TIE2 (intracellular domains of human TIE2) (Homo sapiens, UniProt Q02763).
T2 construct: made in house
Nature of the experiment: TIE-2 enzyme assay (TIE2-E), LANCE method. The experiment is classed as biochemical. Particulars: 80 uM ATP. The method in brief: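 Baculovirus GST-TIE2 (human intracellular domain, aa 762–1104) preactivated 30 min at RT with 2 mM ATP, then reacted 30 min at RT with 1 μM D1-15 peptide, 80 uM ATP, 10 mM MgCl2, pH 7.4, 2.4% DMSO. EDTA-stopped; LANCE Eu-anti-pTyr/streptavidin-APC read-out. IC50 by nonlinear regression, reported as pIC50.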
Background: Time-resolved FRET reads energy transfer from a long-lived donor to a nearby acceptor.

The next experiment concerns the target T3, GST-VEGFR2 (Homo sapiens, UniProt P35968).
T3 construct: GST-VEGFR2, baculovirus expressed recombinant constructs of the intracellular domains of human TIE2 tagged by GST; made in house
Put plainly: VEGF-R2 enzyme assay (VEGF-E), LANCE method. The conditions noted are these: 75 μM ATP. The experiment is classed as biochemical.

Counter-ions that a name gives are not always drawn.

T1 sequence (Q02763 770-1124 limits assumed, change not shown): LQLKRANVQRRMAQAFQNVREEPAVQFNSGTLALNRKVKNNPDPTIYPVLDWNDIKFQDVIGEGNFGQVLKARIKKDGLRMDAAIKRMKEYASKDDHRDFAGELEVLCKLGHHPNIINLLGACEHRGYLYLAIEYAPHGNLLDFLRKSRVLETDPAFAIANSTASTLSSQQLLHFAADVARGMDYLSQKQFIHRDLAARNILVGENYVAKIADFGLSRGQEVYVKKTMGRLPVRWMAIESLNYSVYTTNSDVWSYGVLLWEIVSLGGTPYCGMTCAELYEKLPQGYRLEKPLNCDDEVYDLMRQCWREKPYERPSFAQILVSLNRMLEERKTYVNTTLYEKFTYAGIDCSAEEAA
T2 sequence (Q02763 762-1104): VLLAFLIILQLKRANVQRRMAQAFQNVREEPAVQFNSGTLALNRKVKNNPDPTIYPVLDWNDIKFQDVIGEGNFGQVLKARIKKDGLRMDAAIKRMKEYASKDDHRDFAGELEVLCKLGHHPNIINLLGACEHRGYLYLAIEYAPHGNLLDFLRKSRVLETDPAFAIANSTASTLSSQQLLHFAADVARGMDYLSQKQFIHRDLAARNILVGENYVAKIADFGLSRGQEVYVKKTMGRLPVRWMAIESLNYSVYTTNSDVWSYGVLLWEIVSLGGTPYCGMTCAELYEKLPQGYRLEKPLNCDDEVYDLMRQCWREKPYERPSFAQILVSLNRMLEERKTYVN
T3 sequence (P35968 786-1356 limits assumed): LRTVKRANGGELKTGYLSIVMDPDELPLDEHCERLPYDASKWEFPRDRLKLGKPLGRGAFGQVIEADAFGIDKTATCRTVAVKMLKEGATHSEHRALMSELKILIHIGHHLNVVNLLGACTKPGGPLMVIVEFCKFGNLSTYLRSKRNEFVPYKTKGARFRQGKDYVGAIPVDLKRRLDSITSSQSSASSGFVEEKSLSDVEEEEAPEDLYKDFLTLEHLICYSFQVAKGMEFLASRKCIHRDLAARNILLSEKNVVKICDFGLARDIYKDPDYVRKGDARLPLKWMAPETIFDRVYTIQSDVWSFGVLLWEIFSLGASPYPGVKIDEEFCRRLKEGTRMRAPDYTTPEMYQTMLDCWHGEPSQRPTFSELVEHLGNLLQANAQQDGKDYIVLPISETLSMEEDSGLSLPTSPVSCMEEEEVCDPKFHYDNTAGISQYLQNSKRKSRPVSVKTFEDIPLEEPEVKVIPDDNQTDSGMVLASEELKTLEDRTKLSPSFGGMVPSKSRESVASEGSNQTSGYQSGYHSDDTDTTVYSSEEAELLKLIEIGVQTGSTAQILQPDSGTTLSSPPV

Regarding `COC(=O)Nc1nc2ccc(Oc3ccc(NC(=O)Nc4cc(C(F)(F)F)ccc4Cl)cc3)cc2s1` [Example 76, Methyl N-(6-(4-((2-chloro-5-(trifluoromethyl)phenyl)aminocarbonylamino)phenoxy)benzthiazol-2-yl)carbamate], the VEGF-C entry in experiment [1] is reported as “−”. The IC50 in experiment [2] and in experiment [3] was less than 100 nM each time.

For the compound `COC(=O)Nc1nc2cc(Oc3cccc(NC(=O)Nc4cccc(C(F)(F)F)c4)c3)ccc2[nH]1` [Example 20, Methyl N-(5-(3-((3-(trifluoromethyl)phenyl)aminocarbonylamino)phenoxy)-1H-benzimidazol-2-yl)carbamate], the IC50 in experiment [1] was less than 100 nM; in experiment [2], 100 to 1000 nM; in experiment [3], less than 100 nM.

As to `COC(=O)Nc1nc2cc(Oc3ccc(NC(=O)Nc4cccc(Br)c4)cc3)ccc2[nH]1` [Example 40, Methyl N-(5-(4-((3-bromophenyl)aminocarbonylamino)phenoxy)-1H-benzimidazol-2-yl)carbamate], in experiment [1], the VEGF-C result is “−”. Also, the IC50 in experiment [2] and in experiment [3] was less than 100 nM throughout.

As to `COCCOCC(=O)Nc1nc2ccc(Oc3ccc(NC(=O)Nc4cc(C(F)(F)F)ccc4F)cc3)cc2[nH]1` [Example 34], in experiment [1], the VEGF-C result is “−”. For the same compound, the half-inhibitory concentration (IC50) in experiment [2] and in experiment [3] was less than 100 nM in each case.

Regarding `COC(=O)Nc1nc2ccc(Sc3ccc(NC(=O)Nc4cc([N+](=O)[O-])ccc4C)cc3)cc2[nH]1` [Example 6, Methyl N-(5-(4-((2-methyl-5-nitrophenyl)aminocarbonylamino)phenylthio)-1H-benzimidazol-2-yl)carbamate], the VEGF-C result in experiment [1] is listed as “−”. In addition, the IC50 against GST-VEGFR2 was 1000 to 10000 nM; in experiment [3] it was less than 100 nM.

For the compound `COC(=O)Nc1nc2cc(Oc3ccc(NC(=O)Nc4cccc(C(C)(C)C)c4)cc3)ccc2[nH]1` [Example 21, Methyl N-(5-(4-((3-t-butylphenyl)aminocarbonylamino)phenoxy)-1H-benzimidazol-2-yl)carbamate], the VEGF-C entry in experiment [1] is on record as “−”. The IC50 in experiment [2] and in experiment [3] was less than 100 nM each time.

On to `COC(=O)Nc1nc2cc(Oc3ccc(NC(=O)Nc4cccc(SC(F)(F)F)c4)cc3)ccc2[nH]1` [Example 41, Methyl N-(5-(4-((3-(trifluoromethylthio)phenyl)aminocarbonylamino)phenoxy)-1H-benzimidazol-2-yl)carbamate], for which the VEGF-C result in experiment [1] was “−”. In addition, the IC50 in experiment [2] and in experiment [3] was less than 100 nM each time.

In the case of `CN1CCN(CC(=O)Nc2nc3ccc(Oc4ccc(NC(=O)Nc5cc(C(F)(F)F)ccc5F)cc4)cc3[nH]2)CC1` [Example 101, N-(5-(4-((2-Fluoro-5-(trifluoromethyl)phenyl)aminocarbonylamino)phenoxy)-1H-benzimidazol-2-yl)(4-methyl-1-piperazino)acetamide], the IC50 in experiment [1], in experiment [2] and in experiment [3] was less than 100 nM throughout.

With `CCc1cccc(NC(=O)Nc2ccc(Oc3ccc4[nH]c(NC(=O)OC)nc4c3)cc2)c1` [Example 11, Methyl N-(5-(4-((3-ethylphenyl)aminocarbonylamino)phenoxy)-1H-benzimidazol-2-yl)carbamate], the VEGF-C result in experiment [1] is “−”. In addition, the figures for the IC50 in experiment [2] and in experiment [3] were 100 to 1000 nM and less than 100 nM, respectively.

For `COC(=O)Nc1nc2ncc(Oc3ccc(NC(=O)Nc4cc(C(F)(F)F)ccc4F)cc3)cc2[nH]1.Cl` [Example 75, Methyl N-(6-(4-((2-fluoro-5-(trifluoromethyl)phenyl)aminocarbonylamino)phenoxy)-3,4-diaza-1H-indole-2-yl)carbamate dihydrochloride], the VEGF-C result in experiment [1] is given as “−”. Further, the IC50 in experiment [2] is less than 100 nM; in experiment [3], 100 to 1000 nM.

As for `CC(=O)Nc1nc2cc(Oc3ccc(NC(=O)Nc4cc(C(F)(F)F)ccc4F)nc3)ccc2[nH]1` [Example 36, N-(5-(2-((2-fluoro-5-(trifluoromethyl)phenyl)aminocarbonylamino)-5-pyridyloxy)-1H-benzimidazol-2-yl)acetamide dihydrochloride], in experiment [1], the VEGF-C entry was “−”. In addition, the IC50 in experiment [2] and in experiment [3] was less than 100 nM throughout.

As for `COC(=O)Nc1nc2cc(Oc3ccc(NC(=S)Nc4cccc(OC)c4)cc3)ccc2[nH]1` [Example 185, Methyl N-(5-(4-((3-methoxyphenyl)aminothiocarbonylamino)phenoxy)-1H-benzimidazol-2-yl)carbamate], the IC50 in experiment [1] was 1000 to 10000 nM; on GST-VEGFR2, 100 to 1000 nM.

For the compound `COC(=O)Nc1nc2ccc(Sc3ccc(NC(=O)Nc4cc([N+](=O)[O-])ccc4F)cc3)cc2[nH]1` [Example 8, Methyl N-(5-(4-((2-fluoro-5-nitrophenyl)aminocarbonylamino)phenylthio)-1H-benzimidazol-2-yl)carbamate], in experiment [1], the VEGF-C result was “−”. For the same compound, the IC50 (at GST-VEGFR2; in experiment [3]) was less than 100 nM throughout.

Consider `O=C(O)CCC(=O)Nc1nc2cc(Oc3ccc(NC(=O)Nc4cc(C(F)(F)F)ccc4F)cc3)ccc2[nH]1` [Example 32, 3-(N-(5-(4-((2-Fluoro-5-(trifluoromethyl)phenyl)aminocarbonylamino)phenoxy)-1H-benzimidazol-2-yl)carbamoyl)propionic acid], for which the IC50 in experiment [1] is 1000 to 10000 nM; in experiment [2] it was 100 to 1000 nM; in experiment [3] it was less than 100 nM.

Take `COC(=O)Nc1nc2ccc(Sc3ccc(NC(=O)Nc4cc(C(F)(F)F)cc(C(F)(F)F)c4)cc3)cc2[nH]1` [Example 3, Methyl N-(5-(4-((3,5-di(trifluoromethyl)phenyl)aminocarbonylamino)phenylthio)-1H-benzimidazol-2-yl)carbamate]: the VEGF-C entry in experiment [1] is recorded as “−”. Besides, the IC50 against GST-VEGFR2 is less than 100 nM; in experiment [3], 100 to 1000 nM.

For `CS(=O)(=O)n1c(N)nc2ccc(Oc3ccc(NC(=O)Nc4cc(C(F)(F)F)ccc4F)cc3)cc21` [Example 23], the IC50 was 100 to 1000 nM in experiment [1], less than 100 nM in experiment [2] and less than 100 nM in experiment [3].

As to `CCc1cccc(NC(=O)Nc2ccc(Sc3ccc4nc(NC(=O)OC)[nH]c4c3)cc2)c1` [Example 7, Methyl N-(5-(4-((3-ethylphenyl)aminocarbonylamino)phenylthio)-1H-benzimidazol-2-yl)carbamate], the VEGF-C result in experiment [1] is listed as “−”. In addition, the VEGF-E entry at GST-VEGFR2 is “−”. The compound further returned an IC50 in experiment [3] of less than 100 nM.
